Data set [1] in a line: Metabolic stability in human liver microsomes assessed as half-life preincubated for 5 mins followed by NADPH addition and measured upto 60 mins by HPLC-MS/MS analysis. The format is ADME, Microsome. Conditions: time < 65 min; call rule not given here.
The nature of data set [2]: Aqueous solubility of compound at pH 7.4 by HPLC analysis. The format is physicochemical.
Data set [3] can be described thus: Cytotoxicity against African green monkey Vero cells assessed as reduction in overall metabolic activity incubated for 5 days by MTS reagent based absorbance method. Conditions: chlorocebus sabaeus, time 5 day. The format is toxicity, cell-based.
In another data set the test system is Chikungunya virus. Description: Antiviral activity against Chikungunya virus infected in African green monkey Vero cells assessed as reduction in viral induced cell death incubated for 5 days by MTS reagent based absorbance method. The data set is classed as functional, organism-based. Conditions: 120 h. (Tetrazolium assays rely on reduction of a dye to a coloured formazan, in cell work by metabolically active cells.)

Data set [4] can be described thus: Selectivity index, ratio of CC50 for cytotoxicity against African green monkey Vero cells to EC50 for antiviral activity against Chikungunya virus infected in African green monkey Vero cells assessed as reduction in viral induced cell death. The data set is classed as toxicity, cell-based. Conditions: read-out: Ratio CC50/EC50.
Data set [5] deals with Caco-2. Description: Induction of apoptosis in human Caco-2 cells assessed as increase in PARP expression at 6.25 to 100 uM incubated for 72 hrs by Western blot analysis. The data set is classed as toxicity, cell-based. Conditions: caco-2, 72 h, dose 6.25-100 µM. On the technique in general: In western blotting, separated proteins are transferred to a membrane and probed.

The test system of data set [6] is Caco-2. The data set can be described thus: Cytotoxicity against human Caco-2 cells incubated for 24 to 72 hrs by MTT assay. The data set is classed as toxicity, cell-based. Conditions: time 24-72 hrs.
The subject of data set [7] is Caco-2. The data set can be described thus: Induction of apoptosis in human Caco-2 cells assessed as increase in caspase-3 expression at 6.25 to 100 uM incubated for 72 hrs by Western blot analysis. The format is toxicity, cell-based. Conditions: caco-2, 72 h, dose 6.25-100 µM.

Converted amounts (≈) assume the structure as drawn. Bounds are passed on as bounds.

For orientation: half-life means how long it takes for the measured level to halve. What is called solubility is how much of the substance goes into solution per volume. Broadly, the CC50 is the concentration that lowers cell viability or growth by half. The term EC50 denotes the midpoint of the concentration-response curve. Regarding `CCNc1cc(C(F)(F)F)nc(N2CCN(C(=O)c3ccc(Br)cc3)CC2)n1`, the half-life in data set [1] was determined as 56 min. In data set [2], this molecule came in with a solubility of 1.2 µM (≈ 0.55 µg/mL). The CC50 at 120 h in data set [3] was above 25 µM. For the same molecule, the EC50 in the data set on Chikungunya virus was above 6.3 µM.
With `CCNc1nc(N2CCN(C(=O)c3cc(Cl)cc(Cl)c3)CC2)cc(C(F)(F)F)n1`, the half-life in data set [1] was determined as 29 min. In addition, the solubility in data set [2] was found to be 2 µM (≈ 0.897 µg/mL). The CC50 at 120 h in data set [3] was above 50 µM. Besides, the EC50 in the data set with Chikungunya virus is above 12.5 µM.
Regarding `CCNc1nc(C)cc(N2CCN(C(=O)c3ccc(C(C)(C)C)cc3)CC2)n1`, in data set [4], the selectivity ratio came to 19. Further, in data set [1], the half-life was above 60 min. Further, the solubility in data set [2] worked out at 120 µM (≈ 45.8 µg/mL). Besides, in data set [3], the CC50 at 120 h was found to be 45 µM. In addition, in the data set on Chikungunya virus, the EC50 amounted to 2.4 µM.
Taken in the same sequence, the figures for `CCNc1ccnc(N2CCN(C(=O)c3ccc(F)cc3)CC2)n1` were 47, above 60 min, above 120 µM, 183 µM and 3.9 µM.
In the case of `CCNc1cc(C(F)(F)F)nc(N2CCN(C(=O)c3cc(Cl)cc(Cl)c3)CC2)n1`, the half-life in data set [1] amounted to 18 min. Moreover, the solubility in data set [2] was 3.5 µM (≈ 1.57 µg/mL). In data set [3], the CC50 at 120 h is above 25 µM. Moreover, the EC50 in the data set with Chikungunya virus is above 6.3 µM.
`CCNc1nc(C)cc(N2CCN(C(=O)c3ccc(Cl)c([N+](=O)[O-])c3)CC2)n1`: the selectivity ratio in data set [4] is above 20. Moreover, the half-life in data set [1] is above 60 min. The same molecule showed a solubility in data set [2] above 120 µM. In addition, the CC50 at 120 h in data set [3] is above 20 µM. Moreover, the EC50 in the data set on Chikungunya virus is 0.98 µM.
Taken in the same sequence, the figures for `CCNc1cc(C)nc(N2CCN(C(=O)c3cccc([N+](=O)[O-])c3)CC2)n1` were above 24, 57 min, 119 µM (≈ 44.1 µg/mL), above 100 µM and 4.2 µM.
Consider `CNc1ccnc(N2CCN(S(=O)(=O)c3ccc(F)cc3)CC2)n1`, for which, in data set [4], the selectivity ratio was found to be 20. For the same molecule, in data set [1], the half-life was determined as 48 min. This molecule also yielded a solubility in data set [2] above 120 µM. Further, the CC50 at 120 h in data set [3] was determined as 193 µM. Further, the EC50 in the data set on Chikungunya virus was 9.62 µM.
For `CCNc1nc(C)cc(N2CCN(C(=O)c3ccc(C)cc3)CC2)n1`, in that order: 84, above 60 min, above 120 µM, 203 µM and 2.4 µM.
For `CCNc1nc(C)cc(N2CCN(C(=O)c3ccc(C)c(C)c3)CC2)n1`, in that order: 68, above 60 min, 118 µM (≈ 41.7 µg/mL), 65 µM and 0.95 µM.
For `CCNc1cc(C)nc(N2CCN(S(=O)(=O)c3ccc4ccccc4c3)CC2)n1`, in that order: 1.7, 20 min, 90 µM (≈ 37 µg/mL), 17 µM and 10 µM.
As to `CNc1nc(C)cc(N2CCN(S(=O)(=O)c3ccc(F)cc3)CC2)n1`, in data set [4], the selectivity ratio came out at 9.2. Moreover, the half-life in data set [1] was above 60 min. Also, in data set [2], the solubility is above 120 µM. In data set [3], the CC50 at 120 h stood at 99 µM. For the same molecule, the EC50 in the data set with Chikungunya virus stood at 11 µM.
For `CCNc1cc(C)nc(N2CCN(C(=O)c3ccc(Br)cc3)CC2)n1`, in that order: above 10, above 60 min, 116 µM (≈ 46.9 µg/mL), above 100 µM and 9.58 µM.
Regarding `CCNc1nc(C)cc(N2CCN(C(=O)c3ccc(Cl)c(Cl)c3)CC2)n1`, in data set [4], the selectivity ratio is 81. Moreover, the half-life in data set [1] was above 60 min. The molecule further came in with a solubility in data set [2] of 111 µM (≈ 43.8 µg/mL). Also, the Activity entry with Caco-2 [5], with Caco-2 [6] and in the data set on Caco-2 [7] was “Non-Toxic” in each case. Also, the CC50 at 120 h in data set [3] was 46 µM. In addition, in the data set on Chikungunya virus, the EC50 turned out to be 0.57 µM.
Turning to `CCNc1nc(C)cc(N2CCN(C(=O)c3cccc(Cl)c3)CC2)n1`, the selectivity ratio in data set [4] came to 38. The half-life in data set [1] is above 60 min. The molecule further displayed a solubility in data set [2] above 120 µM. Also, the CC50 at 120 h in data set [3] worked out at 248 µM. Also, in the data set with Chikungunya virus, the EC50 was determined as 6.6 µM.
Take `CCNc1cc(C)nc(NC2CCN(C(=O)c3cc(Cl)cc(Cl)c3)CC2)n1`: the selectivity ratio in data set [4] was 2.02. Further, the half-life in data set [1] was 30 min. In data set [2], this molecule gave a solubility of 94 µM (≈ 38.4 µg/mL). In data set [3], the CC50 at 120 h turned out to be 25 µM. The EC50 in the data set on Chikungunya virus amounted to 12 µM.
Taken in the same sequence, the figures for `CCNc1nc(C)cc(N2CCN(Cc3ccc(F)cc3)CC2)n1` were 2.1, above 60 min, 106 µM (≈ 34.9 µg/mL), 46 µM and 22 µM.
Taken in the same sequence, the figures for `Cc1cc(N2CCN(C(=O)c3ccc(Cl)cc3)CC2)nc(NC(C)C)n1` were 2.6, above 60 min, 115 µM (≈ 43 µg/mL), 46 µM and 18 µM.
As for `CCNc1nc(C)cc(N2CCN(S(=O)(=O)c3ccc(Cl)cc3)CC2)n1`, the selectivity ratio in data set [4] was 3.9. Also, the half-life in data set [1] turned out to be 49 min. The solubility in data set [2] was determined as 104 µM (≈ 41.2 µg/mL). For the same molecule, in data set [3], the CC50 at 120 h was 11 µM. Besides, in the data set on Chikungunya virus, the EC50 was found to be 2.76 µM.
Taken in the same sequence, the figures for `CCNc1nc(C)cc(N2CCN(C(=O)c3cccc(C(F)(F)F)c3)CC2)n1` were 60, above 60 min, above 120 µM, 80 µM and 1.3 µM.
Taken in the same sequence, the figures for `CCNc1nc(C)cc(N2CCN(C(=O)c3ccccc3)CC2)n1` were above 150, above 60 min, above 120 µM, above 308 µM and 2.05 µM.
Taken in the same sequence, the figures for `CCNc1cc(N2CCN(S(=O)(=O)c3ccc(Cl)cc3)CC2)ncn1` were 2.7, above 60 min, 95 µM (≈ 36.3 µg/mL), 44 µM and 15.9 µM.
Consider `CCNc1nc(C)cc(NC2CCN(C(=O)c3cc(Cl)cc(Cl)c3)CC2)n1`, for which the selectivity ratio in data set [4] turned out to be 3.4. Besides, the half-life in data set [1] was above 60 min. In addition, the solubility in data set [2] was determined as 101 µM (≈ 41.2 µg/mL). The CC50 at 120 h in data set [3] worked out at 47 µM. Also, in the data set on Chikungunya virus, the concentration giving a half-maximal response (EC50) worked out at 14 µM.
As to `Cc1cc(N2CCN(S(=O)(=O)c3ccc(Cl)cc3)CC2)nc(NC(C)C)n1`, in data set [4], the selectivity ratio was found to be 4.9. Further, in data set [1], the half-life stood at 54 min. In data set [2], this molecule gave a solubility of 76 µM (≈ 31.2 µg/mL). The CC50 at 120 h in data set [3] turned out to be 19 µM. The EC50 in the data set on Chikungunya virus was determined as 3.8 µM.
Taken in the same sequence, the figures for `CCNc1cc(C)nc(N2CCN(C(=O)c3ccc(I)cc3)CC2)n1` were above 34, above 60 min, 116 µM (≈ 52.4 µg/mL), above 100 µM and 2.9 µM.
Taken in the same sequence, the figures for `CCNc1nc(C)cc(N2CCCC(NC(=O)c3cc(Cl)cc(Cl)c3)C2)n1` (stereo not given) were below 0.12, 44 min, 22 µM (≈ 8.98 µg/mL), 12 µM and above 100 µM.
For `CCNc1nc(C)cc(N2CCN(C(=O)c3ccc(Cl)c(C(F)(F)F)c3)CC2)n1`, in that order: above 11, above 60 min, 101 µM (≈ 43.2 µg/mL), above 20 µM and 1.9 µM.
On to `CCNc1ccnc(N2CCN(S(=O)(=O)c3ccc(Cl)cc3)CC2)n1`, for which the selectivity ratio in data set [4] stood at 2.7. Also, in data set [1], the half-life stood at 19 min. The molecule also yielded a solubility in data set [2] of 94 µM (≈ 35.9 µg/mL). For the same molecule, in data set [3], the CC50 at 120 h was determined as 28 µM. Besides, the EC50 in the data set with Chikungunya virus was 10 µM.
For `Cc1cc(N2CCN(C(=O)c3ccc(Br)cc3)CC2)nc(N(C)C)n1`, in that order: above 15, above 60 min, above 120 µM, above 100 µM and 6.6 µM.
For `Cc1cc(N2CCN(C(=O)c3cc(Cl)cc(Cl)c3)CC2)nc(N(C)C)n1`, in that order: 15, above 60 min, 109 µM (≈ 43 µg/mL), 67 µM and 4.4 µM.
Taken in the same sequence, the figures for `CCNc1nc(C)cc(N2CCN(C(=O)c3cccc(I)c3)CC2)n1` were above 98, 42 min, above 120 µM, above 100 µM and 1 µM.
Take `CCNc1ccnc(N2CCN(C(=O)c3ccc(Cl)cc3)CC2)n1`: in data set [4], the selectivity ratio turned out to be 3.1. The half-life in data set [1] was above 60 min. Further, in data set [2], the solubility was above 120 µM. Moreover, the CC50 at 120 h in data set [3] was found to be 47 µM. In addition, in the data set on Chikungunya virus, the EC50 was 15 µM.
Taken in the same sequence, the figures for `CCNc1cc(C)nc(N2CCN(C(=O)c3ccc(Cl)cc3)CC2)n1` were 37, above 60 min, above 120 µM, 89 µM and 2.4 µM.
Turning to `Cc1cc(N(C)C)nc(N2CCN(C(=O)c3ccc(Br)cc3)CC2)n1`, the selectivity ratio in data set [4] is 6.02. In data set [1], the half-life is 29 min. In data set [2], the concentration in solution (solubility) came to 114 µM (≈ 46.1 µg/mL). In data set [3], the 50% cytotoxic concentration (CC50) at 120 h is 76 µM. Besides, in the data set on Chikungunya virus, the concentration giving a half-maximal response (EC50) was found to be 13 µM.
For `CCNc1cc(C)nc(N2CCN(C(=O)c3cccc(Br)c3)CC2)n1`, in that order: above 20, 9.5 min, above 120 µM, above 100 µM and 5.1 µM.

The record behind these values is ChEMBL document CHEMBL5537149, “Design, synthesis, and lead optimization of piperazinyl-pyrimidine analogues as potent small molecules targeting the viral capping machinery of Chikungunya virus” (Eur J Med Chem, 2024).
